Data on 13 molecules can be found in patent publication US12195482B1 (Arcus Biosciences, Inc., priority 2022, dated 2025).

pIC50: −log10 of the molar value.

Test [1] concerns the target T1, p-AXL (Homo sapiens, UniProt P30530).
T1 construct: expressed in transfected cells; host or cells: HEK293T
T1 sequence (P30530 26-894): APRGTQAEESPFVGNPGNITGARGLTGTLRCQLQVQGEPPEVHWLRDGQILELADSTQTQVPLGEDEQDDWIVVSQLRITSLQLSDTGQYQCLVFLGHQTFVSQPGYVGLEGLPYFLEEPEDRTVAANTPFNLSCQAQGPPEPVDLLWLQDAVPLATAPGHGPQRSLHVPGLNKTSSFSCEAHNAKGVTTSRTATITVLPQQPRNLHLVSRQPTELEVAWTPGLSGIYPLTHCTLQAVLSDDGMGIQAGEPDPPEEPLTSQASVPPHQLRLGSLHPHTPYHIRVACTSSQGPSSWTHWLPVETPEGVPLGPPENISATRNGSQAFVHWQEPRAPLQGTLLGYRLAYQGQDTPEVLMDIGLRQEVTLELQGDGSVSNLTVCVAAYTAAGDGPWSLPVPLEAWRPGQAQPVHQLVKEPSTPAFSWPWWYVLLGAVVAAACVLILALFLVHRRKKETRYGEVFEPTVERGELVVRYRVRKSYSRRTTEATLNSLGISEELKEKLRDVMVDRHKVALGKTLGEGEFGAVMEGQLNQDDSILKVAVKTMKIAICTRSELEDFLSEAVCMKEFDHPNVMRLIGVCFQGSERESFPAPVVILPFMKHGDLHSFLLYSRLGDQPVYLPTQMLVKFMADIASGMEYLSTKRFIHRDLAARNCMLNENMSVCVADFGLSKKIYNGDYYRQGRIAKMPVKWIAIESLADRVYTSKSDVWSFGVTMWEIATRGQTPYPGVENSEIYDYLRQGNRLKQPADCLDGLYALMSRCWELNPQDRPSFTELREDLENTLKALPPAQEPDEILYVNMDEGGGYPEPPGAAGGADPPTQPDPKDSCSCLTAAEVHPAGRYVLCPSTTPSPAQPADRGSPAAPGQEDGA
The test is described as follows: Axl phosphorylation inhibition ELISA in HEK293T cells transfected with NanoLuc-tagged AXL. It is filed as cell-based. Particulars: 1 h compound incubation, media (OptiMEM). The protocol: [formula] Measurement of Axl Phosphorylation Inhibition
The dose-response assays were performed in S-Bio PrimeSurface® 3D culture: Ultra-low Attachment Plates: 384 well, U bottom (#MS-9384UZ) containing 400 nL of 22 serial 2-fold compound dilutions using Bravo and Echo. ELISA assay was performed on Pierce™ streptavidin coated high capacity 384-well white plates (Thermofisher Cat #15505). The plates were coated overnight at 4° C. with 50 μl/well of biotinlyated phospho-tyrosine mouse mAb (Cell Signaling Technology, 9417s).
HEK293T cells were grown in DMEM containing 10% FBS, 1% Pen/Strep, 1% G-Max. A day before the assay, cells were transiently transfected with 6.8 μg of NanoLuc-tagged AXL plasmid DNA and 8 μg of carrier DNA using FuGENE® HD Transfection Reagent (Promega) according to manufacturer's instructions. On the day of the assay, transfected cells were harvested and resuspended in OptiMEM. 70,000 cells/well were added to the compounds containing assay plates. After a gentle mix and a short spin, the plates were incubated at 37° C. After 1 h, the cells were lysed followed by a brief centrifugation and 30 min of shaking at 300 rpm. Meanwhile, the antibody coated plates were brought to room temperature and then were washed ten times in PBS with 0.05% Tween 20 (ELISA-wash buffer). 50 μl/well of cell lysate was transferred to the ELISA plates and shaken for 2 hours. After washing again with the ELISA wash buffer, the samples were diluted with 25 μl of PBS. The captured NanoLuc tagged p-AXL was detected using Nano-Glo® Luciferase Assay System (Promega) and manufacturer's instruction. The luminescence signal was measured using Envision plate reader. IC50 values were determined by fitting the data to a standard 4-parameter logistic equation.
For orientation: An ELISA detects its analyte on a solid surface through an enzyme-linked reagent.

Test [2] deals with T2, Axl (Homo sapiens, UniProt P30530).
T2 sequence (P30530 26-894): T1 sequence (P30530 26-894)
The test is described as follows: Biochemical potency, HTRF KinEASE-TK kinase assay. The arrangement: purchased Invitrogen. Particulars: 5 nM AXL, 700 μM ATP. The protocol: Measurement of Biochemical Compound Potency of Axl Inhibitors
Purified recombinant human AXL, TYRO3 and MER proteins were purchased from Invitrogen™. 10 nM AXL, 2 nM TYRO3 or MER were incubated with varying concentrations of compounds in 50 mM HEPES, pH 7.4, 10 mM MgCl2, 0.01% BSA, 1 mM DTT and 2% DMSO in a total volume of 20 μl in a 384-well microplate (Corning™ #3640) at RT for 1 h. The AXL, TYRO3 and MER enzymatic reaction was initiated by transferring 10 μl of enzyme and compound mixture into 10 μl of 1.6 μM TK Substrate-biotin (HTRF® KinEASE-TK kit, Cisbio) and 1400 μM ATP pre-incubated in 50 mM HEPES, pH 7.4, 10 mM MgCl2, 0.01% BSA, 1 mM DTT in a 384-well microplate (Corning™ #3640) at RT, giving the final reaction conditions: 5 nM AXL, 1 nM TYRO3 or MER, 800 nM TK Substrate-biotin and 700 μM ATP in 50 mM HEPES, pH 7.4, 10 mM MgCl2, 0.01% BSA, 1 mM DTT and 1% DMSO with varying concentrations of compounds. Following 2 h incubation at RT, the AXL, TYRO3 and MER enzymatic reaction was stopped by transfer of 10 μl of reaction into 10 μl of detection mix (400 nM Streptavidin-XL665, 200-fold dilution TK Antibody-Cryptate and detection buffer, HTRF® KinEASE-TK kit, Cisbio) in a white 384-well microplate (Perkin Elmer, OptiPlate 384). After 1 h incubation at RT, the plate was put into a plate reader (Evision) to read at 665/620 nm (acceptor/donor) for HTRF. The value of the DMSO blank (MIN inhibition=100% activity) was used as a negative control. The positive control was established by adding 5 μl of enzyme and DMSO mixture into 10 μl of detection mix followed by addition of 5 μl of TK Substrate-biotin and ATP mixture (MAX inhibition=0% activity). To calculate the percent activity, Equation 1 was used. Ratio665/620 is the value at a given compound concentration: […]
(In general: In TR-FRET formats the signal depends on donor and acceptor labels being close together.)

Turning to `Cc1ccc(C)c(-c2ccc(-c3c[nH]c4ncc(-c5ccc6c(c5)CC[C@@H](N5CCCC5)CC6)cc34)cc2)n1` [Example 148, 3,6-Dimethyl-2-(4-{5-[(7S)-7-(pyrrolidin-1-yl)-6,7,8,9-tetrahydro-5H-benzo[7]annulen-2-yl]-1H-pyrrolo[2,3-b]pyridin-3-yl}phenyl)pyridine], the pIC50 in test [1] was 6.00 to 7.00; in test [2], above 7.00.
As to `Cc1cc(C)c(-c2ccc(-c3c[nH]c4ncc(-c5ccc6c(c5)CC[C@@H](N5C7COCC5C7)CC6)cc34)cc2)cn1` [Example 196, 6-[(7S)-2-{3-[4-(4,6-Dimethylpyridin-3-yl)phenyl]-1H-pyrrolo[2,3-b]pyridin-5-yl}-6,7,8,9-tetrahydro-5H-benzo[7]annulen-7-yl]-3-oxa-6-azabicyclo[3.1.1]heptane], the pIC50 in test [1] was 6.00 to 7.00; in test [2] it was above 7.00.
`c1cnc(-c2ccc(-c3n[nH]c4ncc(-c5ccc6c(c5)CC[C@@H](N5C7COCC5C7)CC6)cc34)cc2)c(C2CCOCC2)c1` [Example 149, 6-[(7S)-2-(3-{4-[3-(Oxan-4-yl)pyridin-2-yl]phenyl}-1H-pyrazolo[3,4-b]pyridin-5-yl)-6,7,8,9-tetrahydro-5H-benzo[7]annulen-7-yl]-3-oxa-6-azabicyclo[3.1.1]heptane]: the pIC50 in test [1] and in test [2] was above 7.00 in each case.
For the molecule `Cc1ccc(C)c(-c2ccc(-c3c[nH]c4ncc(-c5ccc6c(c5)CC[C@@H](N5C7COCC5C7)CC6)cc34)cc2C)n1` [Example 191, 6-[(7S)-2-{3-[4-(3,6-Dimethylpyridin-2-yl)-3-methylphenyl]-1H-pyrrolo[2,3-b]pyridin-5-yl}-6,7,8,9-tetrahydro-5H-benzo[7]annulen-7-yl]-3-oxa-6-azabicyclo[3.1.1]heptane], the pIC50 in test [1] and in test [2] was above 7.00 each time.
Turning to `Cc1cnc(C)c(-c2ccc(-c3n[nH]c4ncc(-c5ccc6c(c5)CC[C@@H](N5C7COCC5C7)CC6)cc34)cc2)n1` [Example 65, 6-[(7S)-2-{3-[4-(3,6-Dimethylpyrazin-2-yl)phenyl]-1H-pyrazolo[3,4-b]pyridin-5-yl}-6,7,8,9-tetrahydro-5H-benzo[7]annulen-7-yl]-3-oxa-6-azabicyclo[3.1.1]heptane], the pIC50 in test [1] and in test [2] was above 7.00 in each case.
`Cc1cnc(C)c(-c2ccc(-c3c[nH]c4ncc(-c5ccc6c(c5)CC[C@@H](N5C[C@@H]7C[C@H]5CO7)CC6)cc34)cc2)n1` [Example 62, (1S,4S)-5-[(7S)-2-{3-[4-(3,6-Dimethylpyrazin-2-yl)phenyl]-1H-pyrrolo[2,3-b]pyridin-5-yl}-6,7,8,9-tetrahydro-5H-benzo[7]annulen-7-yl]-2-oxa-5-azabicyclo[2.2.1]heptane]: the pIC50 in test [1] and in test [2] was above 7.00 each time.
As to `Cc1cccnc1-c1cccc(-c2n[nH]c3ncc(-c4ccc5c(c4)CC[C@@H](N4C6COCC4C6)CC5)cc23)c1` [Example 81, 6-[(7S)-2-{3-[3-(3-Methylpyridin-2-yl)phenyl]-1H-pyrazolo[3,4-b]pyridin-5-yl}-6,7,8,9-tetrahydro-5H-benzo[7]annulen-7-yl]-3-oxa-6-azabicyclo[3.1.1]heptane], the pIC50 in test [1] and in test [2] was above 7.00 throughout.
In the case of `Cc1cc(F)cnc1-c1ccc(-c2c[nH]c3ncc(-c4ccc5c(c4)CC[C@@](C)(N4CCC[C@H]4C)CC5)cc23)cc1` [Example 34, 3-[4-(5-Fluoro-3-methylpyridin-2-yl)phenyl]-5-[(7S)-7-methyl-7-[(2R)-2-methylpyrrolidin-1-yl]-5,6,8,9-tetrahydrobenzo[7]annulen-3-yl]-1H-pyrrolo[2,3-b]pyridine], the pIC50 in test [1] and in test [2] was above 7.00 throughout.
On to `Cc1ccc(C)c(-c2ccc(-c3n[nH]c4ncc(-c5ccc6c(c5)CC[C@@H](N[C@H]5CCCOC5)CC6)cc34)cc2)n1` [Example 140, (3S)—N-[(7S)-2-{3-[4-(3,6-Dimethylpyridin-2-yl)phenyl]-1H-pyrazolo[3,4-b]pyridin-5-yl}-6,7,8,9-tetrahydro-5H-benzo[7]annulen-7-yl]oxan-3-amine], for which the pIC50 in test [1] and in test [2] was above 7.00 each time.
Regarding `Cc1ccc(C#N)nc1-c1ccc(-c2c[nH]c3ncc(-c4ccc5c(c4)CC[C@@H](N4C6COCC4C6)CC5)cc23)cc1` [Example 75, 5-Methyl-6-(4-{5-[(7S)-7-{3-oxa-6-azabicyclo[3.1.1]heptan-6-yl}-6,7,8,9-tetrahydro-5H-benzo[7]annulen-2-yl]-1H-pyrrolo[2,3-b]pyridin-3-yl}phenyl)pyridine-2-carbonitrile], the negative logarithm of the IC50 (pIC50) in test [1] and in test [2] was above 7.00 each time.
With `CN1CCOc2ccnc(-c3ccc(-c4n[nH]c5ncc(-c6ccc7c(c6)CC[C@@H](N6C8COCC6C8)CC7)cc45)cc3)c21` [Example 151, 6-[(7S)-2-[3-(4-{4-Methyl-2H,3H,4H-pyrido[4,3-b][1,4]oxazin-5-yl}phenyl)-1H-pyrazolo[3,4-b]pyridin-5-yl]-6,7,8,9-tetrahydro-5H-benzo[7]annulen-7-yl]-3-oxa-6-azabicyclo[3.1.1]heptane], the pIC50 in test [1] and in test [2] was above 7.00 in each case.
As to `Cc1cccc(C#N)c1-c1ccc(-c2c[nH]c3ncc(-c4ccc5c(c4)CC[C@@H](N4C6COCC4C6)CC5)cc23)nc1` [Example 197, 3-Methyl-2-(6-{5-[(7S)-7-{3-oxa-6-azabicyclo[3.1.1]heptan-6-yl}-6,7,8,9-tetrahydro-5H-benzo[7]annulen-2-yl]-1H-pyrrolo[2,3-b]pyridin-3-yl}pyridin-3-yl)benzonitrile], the figures for the pIC50 in test [1] and in test [2] were 6.00 to 7.00 and above 7.00, respectively.
Take `c1cc2c(c(-c3ccc(-c4n[nH]c5ncc(-c6ccc7c(c6)CC[C@@H](N6C8COCC6C8)CC7)cc45)cc3)n1)NCCO2` [Example 150, 6-[(7S)-2-[3-(4-{2H,3H,4H-Pyrido[4,3-b][1,4]oxazin-5-yl}phenyl)-1H-pyrazolo[3,4-b]pyridin-5-yl]-6,7,8,9-tetrahydro-5H-benzo[7]annulen-7-yl]-3-oxa-6-azabicyclo[3.1.1]heptane]: the pIC50 in test [1] was 6.00 to 7.00; in test [2] it was above 7.00.

Broadly, the pIC50 is the IC50 on a negative log10 scale, so that one unit is a factor of ten.
